Assay results: publication PMC5295395, “Inhibition of PlexA1-mediated brain tumor growth and tumor-associated angiogenesis using a transmembrane domain targeting peptide” (Oncotarget, 2016)

Legend:
U373MG cells [1] = assay: 3D migration assay, U373MG spheroids in plasma clot; type: cell-based, human; conditions: 3D plasma clot, 24 h, VEGF 100 ng/ml, MTP-PlexA1 10–7 M
Procedure: Supplementary Figure S6: The anti-tumor effect of MTP-PlxA1 was verified in U373MG human GBM line. We found […]
Because PlexA1 is involved in cell migration we also performed a 3D migration assay. U373MG cells were grown as cell aggregates (micro tumor-like spheroids) for 24 h in plasma clot with or without VEGF. […]
migration that formed cell chains invading the 3D substrate as previously described (12). Strikingly, VEGF-induced cell migration was abolished when MTP-PlexA1 at 10–7 M was added to the cultures. […]
of PlexA1, this part of the study exemplified the therapeutic potential of MTP-PlexA1 because this peptide was able to block two major mechanisms of tumor progression.
(Stable Disease) and 62.5% PR (Partial Response).
(1 picture or pasted object on this page, not shown here)

[2] = test system: PH3 positive cells in U118MG-Luc tumors; assay: PH3 immunostaining of U118MG-Luc xenograft tumor sections; type: in vivo, human cells in mouse; conditions: 5 sections per tumor, vs control; p = 0.0022, Mann Whitney
Procedure: To address the biological consequences of MTP-PlexA1-mediated inhibition of PlexA1 we used the U118MG-Luc glioma cell line genetically engineered to express the luciferase reporter gene. […] Cells were then grafted subcutaneously and tumor growth was monitored every 5 days for a total period of 20 days. […] The quantitative analysis of the cumulated luminescent signal acquired all along the protocol confirmed the strong reduction of tumor development translating into a marked 75% reduction of the averaged luminescent signal at the end point (Figure 6C). […] In order to clarify the mechanism by which MTP-PlexA1 is exerting tumor growth inhibition we collected tumors and analyzed them histologically.
(B) Representative photographs illustrating the kinetic of tumor growth over 20 days in the two experimental groups. […] (D) Waterfall plot of best response representing the percent change in tumor volume of individual treated animals (grey bars, n = 10) compared to the average tumor volume increased determined in the control group (dark bars, n = 10). […] (F) Representative microphotographs and related quantification of PH3 positive cells in tumor slices (G) Representative microphotographs and related quantification of CD31 positive regions in tumor slices (% CD31 per μm² of tumors).

Rac1 = assay: ELISA-based Rac1 activation assay in U373MG cells; type: cell-based, human
Procedure: (C) Rac-1 activation assay in resting condition and after Sema3A-induced Rac-1 activation in U373 MG cells. (D) Western blot analysis of phosphorylated Akt, total Akt and tubulin in U373MG cells treated with the vehicle (LDS 72 μM), Sema3A (100 ng/ml) or Sema3A + MTP-PlexA1 (10^−7 M). The lower panel is showing the quantification of the p-Akt/Akt ratio in the different conditions. (E) MTP-PlexA1 decreases VEGFR-2 phosphorylation induced by VEGF (100 ng/ml) in HUVEC cells.
PlexA1 is a Rho-GTPase activating protein. Consistently, it has been shown that in response to Sema3A, the Rho-GTPase Rac1 is activated and sequestered at the plasma membrane. […] Moreover, it has been shown that Sema3A inhibits Akt phosphorylation through binding of Rnd1 to PlexA1. […] From these experiments we concluded that MTP-PlexA1 is able to antagonize major signaling pathways of PlexA1 receptor.

U373MG cells [3] = assay: U373MG cell proliferation; type: cell-based, human
[4] = test system: NCH644 glioma stem cell tumors in nude mice; assay: NCH644-mCherry xenograft in nude mice, cells pre-incubated with peptide; type: in vivo, human cells in mouse; conditions: 5 days
Procedure: Mounting evidence supports a crucial role of cancer stem cells in the initiation or relapse of tumors. This is particularly the case for gliomas. Thus, we decided to evaluate to what extent MTP-PlexA1 would affect glioma stem cell (GSC) growth. To this end, we used the NCH644 human cell line derived from a patient biopsy. […] We next performed a sphere forming assay in which cells were plated into 96-well plates at a low density (30 cells per well) to monitor production of clones from individual cells growing as non-adherent gliomaspheres. A minimum of 30 cells per well was required to allow sufficient sphere production (composed of at least 8 cells) in a time frame compatible with drug testing. Visual control of sphere formation on a daily basis confirmed that cellular edifices were arising from single cells and not due to cell clumping. […] To address whether this inhibitory effect is sufficient to impede tumor development in vivo we performed a xenograft experiment. NCH644 GCS were grafted in the flank of nude mice in a way to obtain two bilateral tumors derived from either control cells without treatment or from cells that had been pre-incubated with MTP-PlexA1. This was done using a fluorescent version of the NCH644 cell line (mCherry-NCH644) allowing live monitoring of tumor appearance (Figure 7E). […]
Experiments were performed according to the Guide for Care and Use of Laboratory Animals (E67-6-482-21) and the European Directive with approval of the regional ethical committee (Reference AL/55/62/02/13). […] For the experiment conducted with cancer stem cell line NCH644mCherry, we performed bilateral grafting of 10^6 cells on each flank of 20 nude mice without treatment or pre-incubated for 1 hour with MTP-PlexA1 at 10–7 M. After 5 days, the fluorescence emission of developing tumors was recorded using the NightOwl system (Berthold) using appropriate excitation and emission filters (580 nm/620 nm respectively).

HMEC cells = assay: 3D migration assay with HMEC spheroids in plasma clot; type: cell-based, human; conditions: 3D plasma clot, MTP-PlexA1 10^−7 M, VEGF 100 ng/ml
NCH644 cells = assay: MTS proliferation assay, NCH644 glioma stem cells; type: cell-based, human; conditions: NCH644, p < 0.0001

Sequence: TLPAIVGIGGGGGLLLLVIVAVLIAYKRK [MTP-PlexA1, synthetic transmembrane peptide mimicking the TMD of PlexA1]
- VEGF-induced U373MG tumor cell migration (U373MG cells [1]): abolished
- decrease of PH3 positive proliferative cells in tumors [2]: 37.3%
- Rac1 activity, Sema3A-induced (Rac1; Sema3A-induced): significantly inhibited
- Rac1 activity in the absence of ligand (Rac1; resting condition): not affecting
- U373MG cell proliferation, dose dependence (U373MG cells [3]): dose-dependent reduction
- change of U373MG cell proliferation, maximal effect (U373MG cells [3]; at 10–7 M, p < 0.0001, Mann Whitney): –25%
- change of number of detectable tumors ([4]; NCH644 cells pre-incubated 1 h at 10–7 M, p = 0.0032, Mann Whitney): −71.4%
- detectable tumors after grafting pre-incubated cells ([4]; NCH644 cells pre-incubated 1 h at 10–7 M, untreated control 14 tumors in 20 mice, p = 0.0032): 4 out of 20
- size of tumors that were able to grow ([4]; NCH644 cells pre-incubated, fluorescence, p = 0.4258): comparable to the one of the control group
- VEGFA-induced HMEC cell migration (HMEC cells): abolished
- change of proliferation of glioma stem cells (NCH644 cells): −10%
